The test system of the experiment is NL4-3 strain of HIV-1. Description: HIV replication inhibition: CellTiter-Glo cyto-protection assay in MT4 cells infected with NL4-3 virus. Type of experiment: cell-based. Conditions: Human immunodeficiency virus 1, NL43, 120 h, concentration giving 50% cyto-protection, 5 days incubation, CellTiter-Glo viability readout. How it is done:
The antiviral activity, particularly against HIV, of compounds according to the invention is evaluated by the protocol described below.
Preparation of Virus stock of the NL4-3 strain of HIV-1 (Adachi et al, J Virol, 1986, 59(2):284-91).
The virus was prepared as described in Lopez et al (Lopez et al, Proc Natl Acad Sci USA., 2006, 103(40):14947-52, by transfecting 2×10^6 293 T cells (CRL-1573, ATCC) with following modifications: 6 μg of NL4-3 proviral DNA molecular clone were mixed with Fugene 6 transfection reagent from Roche, and used according to manufacturer's instructions. Forty eight hours later, transfected cell supernatants were harvested, filtered through 0.45-μm-pore-size filters, quantified for HIV-1 p24 antigen by using a Innotest HIV antigen mAb assay (Ingen) according to manufacturer's instructions, and used in infection experiments.
Serial dilutions of compounds to be tested were prepared in complete RPMI medium from 10 mM DMSO stock solutions, and distributed in a volume of 20 μl in 96 well Falcon 353072 Microtest™ tissue culture plate, in order to get 0.5% DMSO final concentration in each well, after the addition of infected cells. Control wells contained also 0.5% DMSO final concentration but no compound.
MT4 cells (from the NIH AIDS Research and Reference Reagent Program) in RPMI complete medium were counted (10×10^6 cells per well in Falcon 353047 Multiwell™ 24 well) and infected for 2 hours at 37°, at a multiplicity of infection (moi) of 0.0001-0.00001. Cells were then centrifuged 3 min at 3000 rpm, and washed two times in 1 ml PBS to remove viruses that have not entered in cells. Infected cells were resuspended in complete RPMI at 1.25×10^6 cells/ml, and 80 μl of infected cells were distributed in each well containing compounds to be tested or control wells. The plates were then incubated at 37° for 5 days.
Assay used to measure the inhibition of HIV replication by the compounds (according to Gregg S. Jones et al., Antimicrobial Agents and Chemotherapy, 2009, 53 (3): 1194-1203).
After 5 days of incubation, 50 μl of CellTiter-Glo reagent (Promega Biosciences, Inc., Madison Wis., USA) were added to each well. Cell lysis was carried out at room temperature during 10 min, 150 μl of lysates were transferred in Packard Optiplate 96 well, and luminescence was read on a Fluoroskan (Thermo Scientific).
Background: In ATP-based viability assays light output follows the ATP content of the culture.

By EC50 is commonly meant the concentration giving half of the maximal effect. A low value points to a more potent agent. For the compound `Cc1cccc(C(OC(C)(C)C)C(=O)O)c1-c1ccc2c(c1)CCCO2` (stereo not shown) [Example 11, 2-(tert-butoxy)-2-[2-(3,4-dihydro-2H-1-benzopyran-6-yl)-3-methylphenyl] acetic acid], the EC50 worked out at 48 µM. `CC(C)(C)OC(C(=O)O)c1c(-c2ccc3c(c2)CCCO3)ccc2ncccc12` (stereo not shown) [Example 20, 2-(tert-butoxy)-2-[6-(3,4-dihydro-2H-1-benzopyran-6-yl)quinolin-5-yl]acetic acid]: the EC50 worked out at 3.8 µM. `CC(C)(C)OC(C(=O)O)c1cccc(C(F)(F)F)c1-c1ccc2c(c1)CCCO2` (stereo not shown) [Example 21, 2-(tert-butoxy)-2-[2-(3,4-dihydro-2H-1-benzopyran-6-yl)-3-trifluoromethylphenyl]acetic acid] displayed an EC50 of 9.7 µM. Next, `Cc1cccc(-c2ccc3c(c2)CCCO3)c1C(OC(C)(C)C)C(=O)O` (stereo not shown) [Example 22, 2-(tert-butoxy)-2-[2-(3,4-dihydro-2H-1-benzopyran-6-yl)-6-methylphenyl]acetic acid]: 26 µM.

The compound `Cc1ccc(C)c(C(OC(C)(C)C)C(=O)O)c1-c1ccc2c(c1)CCCO2` (stereo not shown) [Example 27, 2-(tert-butoxy)-2-[2-(3,4-dihydro-2H-1-benzopyran-6-yl)-3,6-dimethylphenyl]acetic acid] gave an EC50 of 1.6 µM.

Regarding `CC(C)(C)OC(C(=O)O)c1ccc(-c2cccc(-c3cccnc3)c2)cc1-c1ccc2c(c1)CCCO2` (stereo not shown) [Example 30, methyl 2-(tert-butoxy)-2-[2-(3,4-dihydro-2H-1-benzopyran-6-yl)-4-[3-(pyridin-3-yl)phenyl]phenyl]acetic acid], the EC50 is 4.2 µM. `CC(C)(C)OC(C(=O)O)c1c(-c2ccc3c(c2)CCCO3)cccc1C(F)(F)F` (stereo not shown) [Example 33, 2-(tert-butoxy)-2-[2-(3,4-dihydro-2H-1-benzopyran-6-yl)-6-(trifluoromethyl)phenyl]acetic acid] displayed an EC50 of 25 µM. Under `CC(C)(C)OC(C(=O)O)c1c(C(F)(F)F)ccc(F)c1-c1ccc2c(c1)CCCO2` (stereo not shown) [Example 34, 2-(tert-butoxy)-2-[2-(3,4-dihydro-2H-1-benzopyran-6-yl)-3-fluoro-6-(trifluoromethyl)phenyl]acetic acid] stands 14 µM; under `CC(C)(C)OC(C(=O)O)c1c(C(F)(F)F)ccc(OCc2ccccc2)c1-c1ccc2c(c1)CCCO2` (stereo not shown) [Example 35, 2-[3-(benzyloxy)-2-(3,4-dihydro-2H-1-benzopyran-6-yl)-6-(trifluoromethyl)phenyl]-2-(tert-butoxy)acetic acid], 3.2 µM.

Compound `CC1(C)CC=C(c2cccc(C(F)(F)F)c2C(OC(C)(C)C)C(=O)O)CC1` (stereo not shown) [Example 36, 2-(tert-butoxy)-2-[2-(4,4-dimethylcyclohex-1-en-1-yl)-6-(trifluoromethyl)phenyl]acetic acid] returned an EC50 of 4.5 µM.

The values are drawn from US9604900B2, “Inhibitors of viral replication, their process of preparation and their therapeutical uses” (LABORATOIRE BIODIM, priority 2011, dated 2017).
